Reference: patent US20050260630A1, “Rapid methods for detecting methylation of a nucleic acid molecule” (Michigan State University, priority 2004, published 2005)

How the values were obtained:
H4IIE rat hepatoma cells = assay: Global DNA methylation by SssI methylase assay in treated H4IIE cells; details: 72 hour incubation
[1] = Systolic blood pressure of DOCA-treated uninephrectomized rats; assay type: in vivo, rat; details: male Sprague-Dawley rats, uninephrectomy, pellet 200 mg/kg, water with 1.0% NaCl and 0.2% KCl; at 28 days (control 112 mmHg)
Protocol: Hypertensive rats were created by subjecting male Sprague-Dawley rats, weighing […] uninephrectomy and implanting them with a deoxycorticosterone acetate (DOCA) pellet (200 mg/kg). […] Aortas were removed 28 days after implantation of the DOCA pellet.

[2] = tested on: GC-rich regions of liver genomic DNA; assay: GC-rich region methylation following phenobarbital treatment of B6C3F1 mice (AP-PCR and capillary electrophoresis, RsaI/HpaII and RsaI/MspI digests); assay type: in vivo; details: B6C3F1 mouse liver
[3] = tested on: genomic DNA from liver cells (GC-rich regions, 5′CCGG 3′ sites); assay: Arbitrarily primed PCR and capillary electrophoresis methylation analysis of liver DNA of phenobarbital-treated C57BL/6 mice (RsaI/HpaII digest); details: 0.05% (w/v) in drinking water for 2 weeks
[4] = H4IIE cells treated with cytolethal concentrations
[5] = H4IIE cells treated with non-cytolethal concentrations
[6] = HpaII digest, 0.05% (w/v) in drinking water, 2 weeks
[7] = MspI digest, 0.05% (w/v) in drinking water, 2 weeks
[8] = Total of HpaII and MspI digests, 0.05%

O=c1[nH]cc(F)c(=O)[nH]1 [5-FU, 5-fluorouracil]
global DNA methylation status (H4IIE rat hepatoma cells; [4]): decrease in global DNA methylation status

CC(=O)OCC(=O)[C@H]1CC[C@H]2[C@@H]3CCC4=CC(=O)CC[C@]4(C)[C@H]3CC[C@]12C [DOCA, deoxycorticosterone acetate]
systolic blood pressure [1]: 180 mmHg

Nc1ncn([C@H]2C[C@H](O)[C@@H](CO)O2)c(=O)n1 [dAzaC, 5-aza-2′deoxycytidine]
global DNA methylation status (H4IIE rat hepatoma cells; [5]): decrease in global DNA methylation status

CCC1(c2ccccc2)C(=O)NC(=O)NC1=O [phenobarbital]
Sites of Hypermethylation [2, 6]: 10 sites
Sites of Hypomethylation [2, 6]: 5 sites
Sites of “New” Methylation [2, 6]: 11 sites
TOTAL altered sites [2, 6]: 26 sites
Sites of Hypermethylation [2, 7]: 8 sites
Sites of Hypomethylation [2, 7]: 8 sites
Sites of “New” Methylation [2, 7]: 11 sites
TOTAL altered sites [2, 7]: 27 sites
Sites of Hypermethylation [2, 8]: 18 sites
Sites of Hypomethylation [2, 8]: 13 sites
Sites of “New” Methylation [2, 8]: 22 sites
TOTAL altered sites [2, 8]: 53 sites
sites in murine liver DNA where treatment has affected methylation status ([3]; C57BL/6 mice): 10 sites
Sites of Hypermethylation ([3]; liver DNA of male C57BL/6 mice, t-test α=0.05): 8 sites

CN[C@@H]1C[C@H]2O[C@@](C)([C@@H]1OC)n1c3ccccc3c3c4c(c5c6ccccc6n2c5c31)C(=O)NC4 [staurosporine, Staurosporine]
global DNA methylation status (H4IIE rat hepatoma cells; [4]): decrease in global DNA methylation status
global DNA methylation status (H4IIE rat hepatoma cells; [5]): decrease in global DNA methylation status
